Reference: US11667784B2, “Copolymers including cinchona alkaloid components and one or more acrylamide or acrylate containing components, complexes containing the same, and methods of using the” (REGENTS OF THE UNIVERSITY OF MINNESOTA, priority 2017, dated 2023)
Values belong to the molecule of their own block, whether it stands above or below them.

Legend:
plasmid DNA = assay: DNA binding by gel electrophoresis (gel shift assay); conditions: plasmid DNA 4.7 kb, equivalent molar ratios to HEA-quinine copolymer
Procedure: DNA Binding Studies by Gel Electrophoresis. After the 1 hour incubation period, the polyplex solutions of all N/P ratios (10 μL) were each mixed with a 30% glycerol solution in water (2 μL). The solutions were loaded into 0.6% agarose gel containing ethidium bromide (6 μL/100 mL TAE buffer) and run at 60 V for 60 minutes. The gel was visualized under UV transilluminator (λ=366 nm).
The first step in this process is to mix the polymer and pDNA together to form the polyplex. […] Once combined, the solution is left to incubate at room temperature for 1 hour. Polyplexes are formed with varying concentrations of polymer to DNA which are expressed by their N/P ratio. The N/P ratio expresses the molar ratio of cationic amine groups on the polymer (N) over the number of anionic phosphate groups of the DNA backbone (P). […]
Upon a slow addition of an aqueous polymer solution to an aqueous DNA solution (0.02 μg/μL) at a 1:1 v/v ratio, the polymer and DNA self-assemble to form polyplexes. The target concentration of the polymer in the polyplex solution was determined by the target N/P ratio which is the molar ratio of cationic amine groups on the polymer (N) to anionic phosphate groups of the DNA backbone (P). […]

[1] = cited from earlier work
HeLa cells = format: cell-based, human
Source text: Transfection with the acrylate copolymer poly(HEA-co-acrylate), however, provided more promising results. […] Transfection studies with the HEA copolymer will continue at higher N/P ratios in hope of achieving transfection efficiency similar to that of PEI while maintaining limited toxicity.

- ability to bind DNA in gel shift assay (plasmid DNA): inability
Molecule: C=C[C@H]1C[N@@]2CC[C@H]1C[C@H]2[C@H](O)c1ccnc2ccc(OC)cc12 [quinine]
- pKa of quinoline nitrogen ([1]; 4-aminoquinoline nitrogen of chloroquine vs quinoline nitrogen of quinine): 5.2

Molecule: C=C(C)C(=O)NCCN [AEMA, N-(2-aminoethyl) methacrylamide]
- pKa of basic amine ([1]; basic tertiary amine of chloroquine and quinine, amine of AEMA): 9.3

Molecule: poly(HEA-co-quinine) [HEA copolymer]
- toxicity (qualitative inspection) (HeLa cells): much less toxic
